Like-named read-outs stand apart in the source and are kept apart here.

Consider 25 molecules from patent publication US11932638B2, “Ion channel inhibitor compounds for cancer treatment” (Centre National de la Recherche Scientifique, priority 2017, dated 2024).

This assay addresses T1, SK3 channel (Rattus norvegicus, UniProt P70605).
T1 construct: expressed in transfected cells
The assay is described as follows: Conventional manual patch clamp on HEK-rSK3 cells, SK3 channel activity. The class given is cell-based. To be noted: for inhibition at 0.5 µM: 500 nM. An excerpt:
Cell Lines Used to Screen the Molecules on the Activity of SKCa Channels (Small Conductance Calcium-Activated Potassium Channel; SK1, SK2 and SK3) and IKCa Channels (Intermediate Conductance Calcium-Activated Potassium Channel, SK4)
Use was made of the HEK 293 T line, a foetal kidney line which was immortalised with the T antigen of the […] simian virus. This cell line is widely used on account of the ease with which these cells can be transfected with plasmids or other transfection vectors. Four stable lines were used for patch clamp experiments: HEK-hSK1, HEK-rSK2, HEK-rSK3 and HEK-IKCa/SK4 which respectively overexpress the SK1, SK2, SK3 and SK4 channels. The lines were obtained via stable transduction (Girault et al., Current Cancer Drug Targets, 2011, 11, 1111-25) and are those already routinely used to assay SK3 modulators (Potier et al. Br J Pharmacol. 2011 January; 162(2):464-79; Sevrain et al., Med. Chem. Commun., 2012, 3, 1471-1478; Sevrain et al., Organic & Biomolecular Chemistry, 2013 Jul. 21; 11(27):4479-87, Berthe W, Sevrain C M, Chantôme A, Bouchet A M, Gueguinou M, Fourbon Y, Potier-Cartereau M, Haelters J P, Couthon-Gourvès H, Vandier C, Jaffrès P A. ChemMedChem. 2016 Jul. 19; 11(14):1531-9). […] These lines therefore enabled us without difficulty to examine the effect of the molecules on the SK3 channel, and also the selectivity thereof by means of the patch clamp technique. The inhibitory activity of the non-toxic molecules was assayed on the activity of the SK3 channel. The selectivity of the molecules was determined by patch clamp on HEK cell models stably expressing the SK3 channel but also the SK1, SK2, SK3 or IKCa/SK4 channels.
Electrophysiology/Patch-Clamp
Patch clamp is a technique allowing measurement of the activity of ion channels by recording macroscopic (whole cell configuration) or microscopic (e.g. inside out configuration) ionic currents through the plasma membrane. For assay of the effect of the molecules on the SKCa/IKCa channels, two complementary techniques were used: conventional, manual patch clamp and automated patch clamp with the Nanion NPC-16 Patchliner Quattro (4 channels) (Potier et al., Mol Cancer Ther 2006, 5, 2946-53; Chantome et al., Exp Cell Res 2009, 315, 3620-30; Potier et al., Biochem Biophys Res Commun 2010, 397, 42-7; Girault et al., Current Cancer Drug Targets, 2011, 11, 1111-25; Sevrain et al., Med. Chem. Commun., 2012, 3, 1471-1478; Sevrain et al., Organic & Biomolecular Chemistry, 2013 Jul. 21; 11(27):4479-87; Chantome et al., Cancer Research, 2013 Aug. 1; 73(15):4852-61, Gueguinou M, Crottès D, Chantôme A, Rapetti-Mauss R, Potier-Cartereau M, Clarysse L, Girault A, Fourbon Y, Jézéquel P, Guérin-Charbonnel C, Fromont G, Martin P, Pellissier B, Schiappa R, Chamorey E, Mignen O, Uguen A, Borgese F, Vandier C, Soriani O. Oncogene. 2017 Jan. 23. doi: 10.1038/onc.2016.501, Berthe W, Sevrain C M, Chantôme A, Bouchet A M, Gueguinou M, Fourbon Y, Potier-Cartereau M, Haelters J P, Couthon-Gourvès H, Vandier C, Jaffrès P A. ChemMedChem. 2016 Jul. 19; 11(14):1531-9, Guéguinou M, Harnois T, Crottes D, Uguen A, Deliot N, Gambade A, Chantôme A, Haelters J P, Jaffrès P A, Jourdan M L, Weber G, Soriani O, Bougnoux P, Mignen O, Bourmeyster N, Constantin B, Lecomte T, Vandier C, Potier-Cartereau M. Oncotarget. 2016 Jun. 14; 7(24):36168-36184. doi: 10.18632/oncotarget.8786).
For conventional patch clamp, the micropipette is filled with an intrapipette medium—IPM (see composition below) and allows measurement of ionic currents at the same time as allowing maintaining of membrane potential (voltage clamp). The experimental device was composed of an anti-vibration table supporting an inverted microscope (Nikon, Eclipse TE 300). The Petri dish (Corning Incorporated, USA), containing the cells was placed on a plexiglass plate attached to the microscope stage. The pipette was connected to the amplifier (Axopatch 200B) as reference electrode which allowed closing of the electrical circuit. […]

For `COc1cccc2c1CCCC2Nc1ncnc2cccnc12` (stereo not drawn) [Compound 88, N-(5-methoxy-1,2,3,4-tetrahydronaphthalen-1-yl)pyrido[3,2-d]pyrimidin-4-amine], the inhibition (as a rule, the drop in the measured response relative to a control, in per cent) at 0.5 µM was 54.8%. Also, the inhibition at 0.05 µM (50 nM) was determined as 25.8%.

Consider `OC1CCC(Nc2ncnc3cccnc23)c2ccccc21` (stereo not drawn) [Compound 142-E4, 4-(Pyrido[3,2-d]pyrimidin-4-ylamino)tetralin-1-ol], for which the “% SK3 inhibition” value was 10 μM: 48.28 ± 5.99 (N = 3) %. The “% SK3 inhibition” value (50 nM, 0.05 µM) is 50 nM: 21.9 ± 2.32 (N = 3) %. Further, the “% SK3 inhibition” value (100 nM, 0.1 µM) is given as 100 nM: 37.97 ± 3.99 (N = 3) %.

`Fc1cnc2c(N[C@H]3CCCc4ccccc43)ncnc2c1` [Compound 158, 7-Fluoro-N-[(1S)-tetralin-1-yl]pyrido[3,2-d]pyrimidin-4-amine]: where the note is “50 nM”, the inhibition at 0.05 µM turned out to be 35.8%. Also, the inhibition at 0.1 µM (100 nM) worked out at 64.1%. In addition, for the setting “10 μM”, the inhibition at 10 µM turned out to be 84.8%.

Regarding `CCCCCCOc1cnc2c(NC3CCCc4ccccc43)ncnc2c1` (stereo not drawn) [Compound 74, 7-Hexoxy-N-tetralin-1-yl-pyrido[3,2-d]pyrimidin-3-ium-4-amine chloride], the inhibition at 0.5 µM was found to be 48.5%. Further, where the note is “50 nM”, the inhibition at 0.05 µM was found to be 18.4%.

For `OC1CCC(Nc2ncnc3cccnc23)c2ccccc21` (stereo not drawn) [Compound 142-E1, 4-(Pyrido[3,2-d]pyrimidin-4-ylamino)tetralin-1-ol], the inhibition at 0.05 µM (50 nM) worked out at 35.3%. The “% SK3 inhibition” value was 100 nM: 44.55 ± 5.67 (N = 5) % (100 nM, 0.1 µM) and 10 μM: 57.16 ± 5.51 (N = 4) % (10 μM).

Regarding `COCOc1ccc2c(c1)CCCC2N` (stereo not drawn) [Compound 103, 6-(Methoxymethoxy)-1,2,3,4-tetrahydronaphthalen-1-amine], the inhibition at 0.5 µM was found to be 46.9%. The inhibition at 0.05 µM (50 nM) was 30.7%. Besides, the inhibition at 0.1 µM (100 nM) worked out at 57.9%. Also, the inhibition at 10 µM (10 μM) amounted to 83.8%.

As for `O=C1CCC(Nc2ncnc3cccnc23)c2ccccc21` (stereo not drawn) [Compound 152, 4-(Pyrido[3,2-d]pyrimidin-4-ylamino)tetralin-1-one], for the setting “50 nM”, the inhibition at 0.05 µM turned out to be 24.4%. For the same molecule, the inhibition at 0.1 µM (100 nM) turned out to be 41.5%. Further, the inhibition at 10 µM (10 μM) amounted to 61.2%.

As to `Fc1ccc2c(c1)C(Nc1ncnc3cccnc13)CCC2` (stereo not drawn) [Compound 90, N-(7-fluoro-1,2,3,4-tetrahydronaphthalen-1-yl)pyrido[3,2-d]pyrimidin-4-amine], the inhibition at 0.5 µM was 39.9%. Further, where the note is “50 nM”, the inhibition at 0.05 µM was determined as 16.1%.

Consider `c1ccc2c(c1)CCCC2Nc1ncc2ncccc2n1` (stereo not drawn) [Compound 5, N-(1,2,3,4-Tetrahydronaphthalen-1-yl)pyrido[3,2-d]pyrimidin-2-amine], for which the inhibition at 10 µM (10 μM) was determined as 7.7%.

Consider `c1ccc2c(c1)CCC2Nc1ncnc2cccnc12` (stereo not drawn) [Compound 87, N-(2,3-dihydro-1H-inden-1-yl)pyrido[3,2-d]pyrimidin-4-amine], for which the inhibition at 0.5 µM is 47.4%. Also, the inhibition at 0.05 µM (50 nM) was 22.9%.

Consider `Nc1nc(NC2CCCc3ccccc32)c2ncccc2n1` (stereo not drawn) [Compound 33, N^4-(1,2,3,4-tetrahydronaphthalen-1-yl)pyrido[3,2-d]pyrimidine-2,4-diamine], for which the inhibition at 0.05 µM (50 nM) came to 30.5%. The inhibition at 0.1 µM (100 nM) was 53.2%. In addition, the inhibition at 10 µM (10 μM) stood at 71.5%.

For the molecule `Clc1ccc(CNc2ncnc3cccnc23)cc1Cl` [Compound 14, N-(3,4-Dichlorobenzyl)pyrido[3,2-d]pyrimidin-4-amine], the inhibition at 10 µM (10 μM) was 1.52%.

As to `Clc1ccc(CNc2ncc3ncccc3n2)cc1Cl` [Compound 4, N-(3,4-Dichlorobenzyl)pyrido[3,2-d]pyrimidin-2-amine], the inhibition at 10 µM (10 μM) was determined as 3.6%.

Consider `OC1CCc2ccccc2C1Nc1ncnc2cccnc12` (stereo not drawn) [Compound 107, 1-(pyrido[3,2-d]pyrimidin-4-ylamino)-1,2,3,4-tetrahydro-naphthalen-2-ol], for which the inhibition at 0.05 µM (50 nM) came to 29.7%. The inhibition at 0.1 µM (100 nM) stood at 46.8%. For the same molecule, for the setting “10 μM”, the inhibition at 10 µM stood at 54.7%.

Take `OC1CCC(Nc2ncnc3cccnc23)c2ccccc21` (stereo not drawn) [Compound 142-E3, 4-(Pyrido[3,2-d]pyrimidin-4-ylamino)tetralin-1-ol]: the “% SK3 inhibition” value by setting is: (50 nM, 0.05 µM) 50 nM: 30.69 ± 3.07 (N = 4) %; (100 nM, 0.1 µM) 100 nM: 49.71 ± 4.48 (N = 4) %; (10 μM) 10 μM: 58.9 ± 6.08 (N = 4) %.

`CC1(C)CCC(Nc2ncnc3cccnc23)c2ccccc21` (stereo not drawn) [Compound 93, N-(4,4-dimethyl-1,2,3,4-tetrahydronaphthalen-1-yl)pyrido[3,2-d]pyrimidin-4-amine]: under “50 nM”, the inhibition at 0.05 µM is 45.9%. The inhibition at 0.1 µM (100 nM) is 53.5%. Under “10 μM”, the inhibition at 10 µM came to 71.8%.

Consider `Clc1ccc2ncnc(N[C@H]3CCCc4ccccc43)c2n1` [Compound 133, 6-Chloro-N-[(1S)-tetralin-1-yl]pyrido[3,2-d]pyrimidin-4-amine], for which the inhibition at 0.05 µM (50 nM) was determined as 39%. Moreover, the inhibition at 0.1 µM (100 nM) was found to be 56.3%. Under “10 μM”, the inhibition at 10 µM was found to be 67.3%.

For `Cc1cc(C)n(-c2nc(NC3CCCc4ccccc43)c3ncccc3n2)n1` (stereo not drawn) [Compound 67, 2-(3,5-Dimethylpyrazol-1-yl)-N-tetralin-1-yl-pyrido[3,2-d]pyrimidin-4-amine], the inhibition at 0.5 µM was 39.3%. The inhibition at 0.1 µM (100 nM) is 35.3%. Moreover, the inhibition at 1 µM (1 μM) amounted to 82.4%.

Turning to `Fc1nc(N[C@H]2CCCc3ccccc32)c2ncccc2n1` [Compound 49, (S)-2-Fluoro-N-(1,2,3,4-tetrahydronaphthalen-1-yl)pyrido [3,2-d]pyrimidin-4-amine], the inhibition at 0.5 µM stood at 75.8%. Further, under “100 nM”, the inhibition at 0.1 µM is 37.1%. Moreover, for the setting “250 nM”, the inhibition at 0.25 µM was 83.1%.

For `N#Cc1nc(NC2CCCc3ccccc32)c2ncccc2n1` (stereo not drawn) [Compound 32, 4-(1,2,3,4-tetrahydronaphthalen-1-ylamino)pyrido[3,2-d]pyrimidine-2-carbonitrile], the inhibition at 0.5 µM was 27.7%. Besides, the inhibition at 0.05 µM (50 nM) worked out at 23.6%.

Consider `c1ccc2c(c1)CCCC2Nc1ncnc2ncccc12` (stereo not drawn) [Compound 47, N-(1,2,3,4-Tetrahydronaphthalen-1-yl)pyrido[2,3-d]pyrimidin-4-amine], for which, under “10 μM”, the inhibition at 10 µM was 7.54%.

For `OC1CCC(Nc2ncnc3cccnc23)c2ccccc21` (stereo not drawn) [Compound 142-E2, 4-(Pyrido[3,2-d]pyrimidin-4-ylamino)tetralin-1-ol], the “% SK3 inhibition” value is, setting by setting: (50 nM, 0.05 µM) 50 nM: 35.72 ± 1.79 (N = 4) %; (100 nM, 0.1 µM) 100 nM: 59.42 ± 3.43 (N = 4) %; (10 μM) 10 μM: 75.11 ± 2.87 (N = 4) %.

With `c1ccc2c(c1)OCCC2Nc1ncnc2cccnc12` (stereo not drawn) [Compound 62, N-(3,4-dihydro-2H-1-benzopyran-4-yl)pyrido[3,2-d]pyrimidin-4-amine], the inhibition at 0.05 µM (50 nM) came out at 32.1%. Further, the inhibition at 0.1 µM (100 nM) turned out to be 46.8%. Besides, the inhibition at 10 µM (10 μM) was 54.4%.

As to `Clc1nc(NC2CCCc3ccccc32)c2ncccc2n1` (stereo not drawn) [Compound 6, 2-Chloro-N-(1,2,3,4-tetrahydronaphthalen-1-yl)pyrido[3,2-d]pyrimidin-4-amine], the inhibition at 10 µM (10 μM) stood at 2.65%.

For `c1ccc2c(Nc3ncnc4cccnc34)cccc2c1` [Compound 86, N-(1-Naphtyl)pyrido[3,2-d]pyrimidin-4-amine], the inhibition at 0.5 µM was determined as 18%. Further, under “50 nM”, the inhibition at 0.05 µM was -9.01%.
